Test results reported in US11173137B2, “Compositions and methods to modulate chloride ion channel activity” (The Board of Trustees of the Leland Stanford Junior …, priority 2018, dated 2021).
“And” between values parts separate entries of the source, which are not always exact repeats. Equal entries are not always repeated. Where two headings read alike, the source gives them in different places.

What was measured:
CLC-2 [1] = target: T1, CLC-2 (Homo sapiens (Human), UniProt P51788); assay: IonWorks Barracuda automated patch-clamp electrophysiology, human CLC-2 cell line; type: cell-based; conditions: for % inhibition at the concentration listed (in parenthesis): CLC-2, at the concentration listed in the IC50 cell, negative = increase in peak current
T1 sequence (P51788 whole entry): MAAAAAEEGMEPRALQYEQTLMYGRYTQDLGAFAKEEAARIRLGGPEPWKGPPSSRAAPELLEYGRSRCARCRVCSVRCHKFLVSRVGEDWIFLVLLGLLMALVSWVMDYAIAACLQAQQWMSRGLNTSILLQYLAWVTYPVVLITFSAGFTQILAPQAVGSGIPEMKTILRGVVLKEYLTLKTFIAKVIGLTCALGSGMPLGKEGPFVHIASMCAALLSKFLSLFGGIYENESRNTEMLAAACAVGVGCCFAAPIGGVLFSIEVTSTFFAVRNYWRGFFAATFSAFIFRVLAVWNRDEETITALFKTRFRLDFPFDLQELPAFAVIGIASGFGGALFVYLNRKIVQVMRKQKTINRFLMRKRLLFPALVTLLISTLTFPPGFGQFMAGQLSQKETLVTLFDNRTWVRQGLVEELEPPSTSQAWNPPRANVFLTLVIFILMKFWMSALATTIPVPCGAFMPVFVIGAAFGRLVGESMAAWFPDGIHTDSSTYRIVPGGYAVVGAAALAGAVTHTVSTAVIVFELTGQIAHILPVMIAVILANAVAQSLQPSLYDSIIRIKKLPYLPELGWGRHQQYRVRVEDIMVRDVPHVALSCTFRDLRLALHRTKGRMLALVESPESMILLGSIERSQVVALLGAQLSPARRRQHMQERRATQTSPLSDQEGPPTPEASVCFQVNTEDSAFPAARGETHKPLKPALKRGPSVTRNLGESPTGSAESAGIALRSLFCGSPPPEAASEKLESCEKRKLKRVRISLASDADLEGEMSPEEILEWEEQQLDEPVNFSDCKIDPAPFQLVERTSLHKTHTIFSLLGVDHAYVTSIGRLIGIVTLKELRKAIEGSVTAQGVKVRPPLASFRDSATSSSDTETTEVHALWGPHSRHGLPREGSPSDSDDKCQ
Source text: FIG. 8, panels A and B depict graphically the Selectivity between CLC-1 and CLC-2. […]

CLC-2 [2] = target: T1, CLC-2; conditions: cited from earlier work
CLC-1 = CLC-1 (Homo sapiens (Human), UniProt P35523); assay: IonWorks Barracuda automated patch-clamp electrophysiology, CLC-1; type: cell-based; conditions: for IC50: Table 2
Chain of CLC-1 (P35523 whole entry): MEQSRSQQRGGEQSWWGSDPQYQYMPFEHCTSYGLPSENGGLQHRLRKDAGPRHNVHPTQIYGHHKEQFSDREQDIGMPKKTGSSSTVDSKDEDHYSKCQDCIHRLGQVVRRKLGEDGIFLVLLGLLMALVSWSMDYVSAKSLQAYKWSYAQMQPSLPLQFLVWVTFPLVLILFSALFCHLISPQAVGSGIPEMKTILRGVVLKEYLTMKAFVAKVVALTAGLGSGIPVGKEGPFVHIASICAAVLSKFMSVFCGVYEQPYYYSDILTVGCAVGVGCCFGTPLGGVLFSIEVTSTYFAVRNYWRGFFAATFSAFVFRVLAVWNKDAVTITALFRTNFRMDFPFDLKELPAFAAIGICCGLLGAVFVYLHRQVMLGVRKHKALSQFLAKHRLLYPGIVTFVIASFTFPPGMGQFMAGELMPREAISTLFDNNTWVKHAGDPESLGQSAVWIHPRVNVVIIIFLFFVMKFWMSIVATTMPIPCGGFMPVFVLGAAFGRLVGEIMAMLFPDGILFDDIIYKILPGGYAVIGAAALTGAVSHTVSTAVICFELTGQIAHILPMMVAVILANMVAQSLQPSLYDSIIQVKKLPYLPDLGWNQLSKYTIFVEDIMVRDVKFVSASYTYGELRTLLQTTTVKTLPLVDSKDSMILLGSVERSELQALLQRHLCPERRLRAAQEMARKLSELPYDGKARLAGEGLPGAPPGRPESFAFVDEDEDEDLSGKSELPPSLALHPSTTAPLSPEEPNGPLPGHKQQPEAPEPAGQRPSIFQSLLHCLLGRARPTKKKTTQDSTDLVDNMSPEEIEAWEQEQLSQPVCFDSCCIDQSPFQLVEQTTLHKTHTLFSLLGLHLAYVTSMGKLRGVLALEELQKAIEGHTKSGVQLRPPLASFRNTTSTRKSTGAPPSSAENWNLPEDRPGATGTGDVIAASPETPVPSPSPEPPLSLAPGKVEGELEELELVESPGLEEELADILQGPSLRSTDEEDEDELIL
Method: If the IC50 was greater than the highest concentration tested, this concentration is listed along with the percent inhibition at this concentration (in parenthesis).
FIG. 8, panels A and B depict graphically the Selectivity between CLC-1 and CLC-2. […] Data points represent the mean current block at 16 different FA44 concentrations (n=4-8), using the IonWorks™ Barracuda. […] Panel B depicts a summary graph showing the mean inhibition of CLC-1 (left bar) or CLC-2 (right bar) current at 30 μM, illustrating the improvement in both selectivity and potency from the hit compound MCFA to the exemplary compound FA44.

[3] = n = 4 cells, four concentrations of each compound, IonWorks Barracuda, read-out: IC50 (μM) against CLC-2
[4] = Table 2, read-out: IC50 (CLC-2)

% inhibition at the concentration listed (in parenthesis) (CLC-2 [1]) | IC50 (CLC-2 [1]; [3]) | Structure (SMILES) | also measured
(0%) | > 120 µM | O=C(O)c1cccnc1Nc1cccc(C(F)(F)F)c1 [NFA, reference compound] | 
 | 15.8 µM | Cc1ccc(COc2ccc(Cl)c(Nc3ccccc3C(=O)O)c2Cl)cc1 [EEGI-056] | 
 | 24.7 µM | Cc1ccc(C(=O)O)c(Nc2c(Cl)ccc(C)c2Cl)c1 [AK2-288A] | 
 | 35.7 µM | O=C(O)c1ccccc1Nc1c(Cl)ccc(C(F)(F)F)c1Cl [AK2-270A] | 
 |  | O=S(=O)(O)c1cc(N=C=S)ccc1C=Cc1ccc(N=C=S)cc1S(=O)(=O)O [DIDS] | potency of previously reported small-molecule inhibitors of CLC-2 (CLC-2 [2]): mM range
 | 33.4 µM | Cc1ccc(Cl)c(Nc2ccccc2-c2nnn[nH]2)c1Cl [AK3-89] | 
 | 77.1 µM | O=C(CCCC[C@@H]1SC[C@@H]2NC(=O)N[C@@H]21)NCCOCCOCCOCCOCCC(=O)NCCOc1ccc(Cl)c(Nc2ccccc2C(=O)O)c1Cl [AK3-294] | 
(22%) | > 120 µM | O=C(O)c1ccccc1Nc1c(Cl)cc(Cl)cc1Cl [AK2-214B] | 
(36%) | > 141 µM | Cc1ccc(Cl)c(Nc2cccc(C(=O)O)c2)c1Cl [AK3-97A] | 
(13%) | > 120 µM | O=C(O)c1ccccc1Nc1ccc(Cl)cc1Cl [AK2-200A] | 
(28%) | > 120 µM | Cc1ccc(Cl)c(Nc2ccccc2OS(=O)(=O)O)c1Cl [AK2-262] | 
(15%) | > 120 µM | NC(=O)c1ccc(COc2ccc(Cl)c(Nc3ccccc3C(=O)O)c2Cl)cc1 [AK3-219] | 
(27%) | > 312 µM | O=C(O)c1ccccc1Nc1ccccc1 [DPC, reference compound] | potency of previously reported small-molecule inhibitors of CLC-2 (CLC-2 [2]): mM range
(−16%) | > 69 µM | Cc1ccc(Cl)c2[nH]c3c(C(=O)O)ccc(F)c3c12 [AK3-98B] | 
 | 12.6 µM | O=C(O)c1ccccc1Nc1c(Cl)ccc(-c2ccccc2)c1Cl [AK3-100A] | 
 | 48.8 µM | O=C(O)c1ccccc1Nc1c(Cl)ccc(C2=CCCCC2)c1Cl [AK3-103B] | 
 | 14 µM and 13.9 µM | Cc1ccc(Cl)c(Nc2ccccc2C(=O)O)c1Cl [MCFA, meclofenamate, reference compound] | IC50 (CLC-2 [1]; [4]): 8.7 ± 0.3 µM; IC50 (CLC-1): 60 ± 9 µM
 | 2.98 µM | O=C(O)c1ccccc1Nc1c(Cl)ccc(OCC2CCCCC2)c1Cl [AK3-101A] | 
(5%) | > 120 µM | NC(=O)c1cccc(COc2ccc(Cl)c(Nc3ccccc3C(=O)O)c2Cl)c1 [AK3-226] | 
(23%) | > 120 µM | O=C(O)c1ccccc1Nc1cc(Cl)ccc1Cl [AK2-209B] | 
(8%) | > 144 µM | Cc1ccc(Cl)c(Nc2ccc(C(=O)O)cc2)c1Cl [AK3-97B] | 
 | 5.29 µM | COc1ccccc1-c1ccc(Cl)c(Nc2ccccc2C(=O)O)c1Cl [AK3-101B] | 
 |  | O=C(O)c1c2ccccc2cc2ccccc12 [Compound 9-AC] | potency of previously reported small-molecule inhibitors of CLC-2 (CLC-2 [2]): mM range
(37%) | > 102 µM | Cc1ccc(Cl)c(Nc2cccc(C)c2C(=O)O)c1Cl [AK2-288C] | 
 | 13.7 µM | Cc1ccc(Cl)c(Nc2cc(F)ccc2C(=O)O)c1Cl [AK3-98A] | 
 | 17.9 µM | O=C(O)c1cccc(COc2ccc(Cl)c(Nc3ccccc3C(=O)O)c2Cl)c1 [AK3-239] | 
 | 67.8 µM | O=C(O)c1ccccc1COc1ccc(Cl)c(Nc2ccccc2C(=O)O)c1Cl [AK3-250] | 

% inhibition at the concentration listed (in parenthesis) (CLC-2 [1]) | IC50 (CLC-2 [1]; [3]) | Structure (SMILES) | also measured
(0%) | > 120 µM | NC(=O)c1ccccc1COc1ccc(Cl)c(Nc2ccccc2C(=O)O)c1Cl [AK3-225] | 
 | 3.6 µM | O=C(O)c1ccccc1Nc1c(Cl)ccc(O)c1Cl [AK3-102A] | 
 | 7.16 µM | C=C(C)c1ccc(Cl)c(Nc2ccccc2C(=O)O)c1Cl [AK2-289B] | 
 | 86.3 µM | CCc1cccc(CC)c1Nc1ccccc1C(=O)O [AK3-97C] | 
(43%) | > 120 µM | Cc1cccc(Nc2ccccc2C(=O)O)c1Cl [AK2-200C] | 
(48%) | > 120 µM | Cc1ccc(Cl)c(Nc2ccccc2C(=O)O)c1 [AK2-214A] | 
 | 42.4 µM | Cc1ccc(Cl)c(Nc2ccccc2C(N)=O)c1Cl [AK3-124] | 
 | 7.69 µM | CCc1ccc(Cl)c(Nc2ccccc2C(=O)O)c1Cl [AK2-292] | 
(4%) | > 120 µM | O=C(O)c1ccc(COc2ccc(Cl)c(Nc3ccccc3C(=O)O)c2Cl)cc1 [AK3-224] | 
 | 7.93 µM | Cc1cccc(COc2ccc(Cl)c(Nc3ccccc3C(=O)O)c2Cl)c1 [EEGI-054] | 
(41%) | > 120 µM | O=C(O)c1ccccc1Nc1c(F)cccc1F [AK2-214C] | 
 | 2.04 µM | COCOc1ccc(Cl)c(Nc2ccccc2C(=O)O)c1Cl [AK3-99A] | 
(12%) | > 120 µM | O=C(O)c1ccccc1Nc1ccc(Cl)c(Cl)c1 [AK2-200B] | 
 | 22.1 µM | O=C(O)c1ccccc1Nc1c(Cl)cccc1Cl [AK2-209A] | 
 | 1.79 µM | Cc1ccc(Cl)c(Nc2ncccc2C(=O)O)c1Cl [AK3-108B] | IC50 (CLC-2 [1]; [4]): 4 ± 0.7 µM; IC50 (CLC-1): > 30 µM; percent inhibition of CLC-1 at highest concentration tested (in parenthesis) (CLC-1; at the concentration listed in the same cell): 5%
(12%) | > 222 µM | Cc1ccc(Cl)c(Nc2cccnc2C(=O)O)c1Cl [AK3-107A] | 
 | 7.32 µM | O=C(O)c1ccccc1Nc1c(Cl)ccc(OCCc2ccccc2)c1Cl [EEGI-060] | 
 | 1.2 µM | Cc1ccccc1COc1ccc(Cl)c(Nc2ccccc2C(=O)O)c1Cl [EEGI-055] | 
 | 23.4 µM | Cc1cccc(C)c1Nc1ccccc1C(=O)O [AK2-289C] | 
 | 115 µM | Cc1ccc(Cl)c(Nc2cnccc2C(=O)O)c1Cl [AK3-108A] | 
 | 81.9 µM | CC(=O)Nc1cccc(COc2ccc(Cl)c(Nc3ccccc3C(=O)O)c2Cl)c1 [AK3-227] | 
(7%) | > 120 µM | NCCOc1ccc(Cl)c(Nc2ccccc2C(=O)O)c1Cl [AK3-296] | 
 | 9.86 µM | COc1ccc(Cl)c(Nc2ccccc2C(=O)O)c1Cl [AK2-289A] | 
(16%) | > 42 µM | Cc1ccc(Cl)c(Nc2ccncc2C(=O)O)c1Cl [AK3-107B] | 
 |  | O=C(O)c1cc([N+](=O)[O-])ccc1NCCCc1ccccc1 [NPPB] | potency of previously reported small-molecule inhibitors of CLC-2 (CLC-2 [2]): mM range
 | 1.16 µM | O=C(O)c1ccccc1Nc1c(Cl)ccc(OCc2ccccc2F)c1Cl [AK3-261] | 

Structure (SMILES) | % inhibition at the concentration listed (in parenthesis) (CLC-2 [1]) | IC50 (CLC-2 [1]; [3]) | also measured
CCOP(=O)(O)c1ccccc1Nc1c(Cl)ccc(C)c1Cl [AK3-119] | (41%) | > 354 µM | 
Cc1ccc(Cl)c(Nc2ccccc2P(=O)(O)O)c1Cl [AK3-118] | (6%) | > 195 µM | 
O=C(O)c1cccc2c1[nH]c1c(Cl)ccc(OCc3ccccc3)c12 [AK3-251] | (5%) | > 120 µM | 
O=C(O)c1cccc2c1[nH]c1c(Cl)ccc(C(F)(F)F)c12 [AK2-270B] | (−48%) | > 120 µM | 
